The text below walks through data of patent US20260034123A1 (Cedilla Therapeutics, Inc., priority 2022, published 2026).

Assay [1] has as its target T1, CDK2/Cyclin E1 (Homo sapiens, UniProt P24941). As to the kind of experiment: Caliper LabChip EZ Reader mobility shift assay. Type of assay: biochemical. As to conditions: 2.5 nM CDK2/Cyclin E1(14-475), 100 μM ATP, 30 min preincubation; read-out: Caliper Assay (CDK2/CCNE1): IC50. As to the method:
Inhibition of CDK2/Cyclin E1 activity in the presence of compounds of the present disclosure was evaluated using a Caliper LabChip® EZ Reader mobility shift assay. In the assay, activated CDK2/Cyclin E1 catalyzes the phosphorylation of a fluorescently tagged peptide 5-FAM-QSPKKG-CONH2 (PerkinElmer, FL Peptide 18) which induces a difference in capillary electrophoresis mobility. The peptide substrate and product were measured, and the conversion ratio was used to determine the inhibition (as % activity and IC50 values) of CDK2/Cyclin E1. Reactions contained 50 mM HEPES pH 7.5, 10 mM MgCl2, 1 mM EDTA, 2 mM DTT, 0.01% Brij35, 0.5 mg/mL BSA, 0.1% DMSO, 2.5 nM CDK2/Cyclin E1(14-475), 100 μM ATP, and 1.5 μM fluorescent peptide substrate.
Dose titrations of inhibitors in 100% DMSO were combined with 3.25 nM CDK2/Cyclin E1(14-475) and 130 μM of ATP in reaction buffer. The mixtures were incubated for 30 minutes before the addition of fluorescent peptide substrate to initiate the kinase reaction. The final conditions were 2.5 nM CDK2/Cyclin E1(14-475), 100 μM ATP, and 1.5 μM fluorescent peptide. The reactions were stopped after 100 minutes with the addition of EDTA (6 mM final EDTA concentration). The stopped reactions were analyzed on a Caliper LabChip® EZ Reader 11. The conversion ratios were normalized to yield % activity, plotted against compound concentration, and fit to a four-parameter equation to determine the IC50 for each compound.

Assay [2] concerns the target T1, CDK2/Cyclin E1. As to the kind of experiment: ADP-Glo Luminescent Kinase Assay (CDK2/E1-37C). Type of assay: biochemical. As to conditions: 0.18 nM CDK2/Cyclin E1, 100 μM ATP, Histone H1, 37° C.; read-out: ADPGLO (CDK2/E1-37C): IC50. A digest of the protocol: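 Activated CDK2/Cyclin E1 (0.18 nM final) preincubated with compound 60 min at 37 °C, then reacted with 100 μM ATP and Histone H1 ([…]) for 90 min at 37 °C in HEPES pH 7.5 buffer. ADP-Glo luminescence normalized to % activity; IC50 from four-parameter fit.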
For orientation: ADP-Glo first removes unused ATP, then detects ADP through luciferase.

The subject of another assay is Kuramochi cells RB-WT. As to the kind of experiment: IncuCyte Kuramochi cell proliferation assay, RB-WT. It is filed as cell-based. As to conditions: 72 hours, cell count. A digest of the protocol:
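mApple-H2B-labelled Kuramochi cells were treated with a 10-point, half-log series (top 20 µM) and imaged at 0 and 72 h. Fluorescent nuclei were counted, and the 0–72 h fold change was normalized to DMSO wells. GI50 came from dose-response fits.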

For the compound `CC1(C)C[C@@H]1C(=O)N1CC2(CN(C(=O)c3cncs3)CC2COCc2cccc(-c3ccc(C(F)(F)F)cc3)c2C(=O)O)C1` (stereo partly drawn) [Compound I-4, 3-(((2-((S)-2,2-dimethylcyclopropane-1-carbonyl)-6-(thiazole-5-carbonyl)-2,6-diazaspiro[3.4]octan-8-yl)methoxy)methyl)-4′-(trifluoromethyl)-[1,1′-biphenyl]-2-carboxylic acid], the IC50 on CDK2/Cyclin E1 [1] is < 0.01 µM; on CDK2/Cyclin E1 [2], 0.5 to 5 µM; in the assay with Kuramochi cells RB-WT it was > 10 µM.
For `COC(=O)c1c(COCC2CN(C(=O)c3cncs3)CC23CN(C(=O)[C@H]2CC2(C)C)C3)cccc1-c1ccc(C(F)(F)F)cc1` (stereo partly drawn) [Compound I-5, methyl 3-(((2-((S)-2,2-dimethylcyclopropane-1-carbonyl)-6-(thiazole-5-carbonyl)-2,6-diazaspiro[3.4]octan-8-yl)methoxy)methyl)-4′-(trifluoromethyl)-[1,1′-biphenyl]-2-carboxylate] the same measures were 0.01 to 0.1 µM, 0.5 to 5 µM and 5 to 10 µM.
The matching figures for `CC1(C)C[C@@H]1C(=O)N1CC2(CN(C(=O)c3cnn(Cc4ccc(C(=O)O)cc4)c3)CC2COCc2cccc(-c3ccc(C(F)(F)F)cc3)n2)C1` (stereo partly drawn) [Compound I-6, 4-((4-(2-((S)-2,2-dimethylcyclopropane-1-carbonyl)-8-(((6-(4-(trifluoromethyl)phenyl)pyridin-2-yl)methoxy)methyl)-2,6-diazaspiro[3.4]octane-6-carbonyl)-1H-pyrazol-1-yl)methyl)benzoic acid]: 1 to 10 µM, > 10 µM and > 10 µM.
The matching figures for `Cc1c(COC[C@@H]2CN(C(=O)c3cncs3)CC23CN(C(=O)[C@H]2CC2(C)C)C3)cccc1C1CCOCC1` [Compound I-31, ((S)-2-((S)-2,2-dimethylcyclopropanecarbonyl)-8-(((2-methyl-3-(tetrahydro-2H-pyran-4-yl)benzyl)oxy)methyl)-2,6-diazaspiro[3.4]octan-6-yl)(thiazol-5-yl)methanone]: 0.1 to 1 µM, 0.5 to 5 µM and 5 to 10 µM.
As to `CC(OCc1cccc(C2CCOCC2)n1)[C@@H]1CN(C(=O)c2cncs2)CC12CN(C(=O)[C@H]1CC1(C)C)C2` (stereo partly drawn) [Compound I-35, ((S)-2-((S)-2,2-dimethylcyclopropane-1-carbonyl)-8-(1-((6-(tetrahydro-2H-pyran-4-yl)pyridin-2-yl)methoxy)ethyl)-2,6-diazaspiro [3.4]octan-6-yl) (thiazol-5-yl) methanone], the IC50 at CDK2/Cyclin E1 [1] and in the assay with Kuramochi cells RB-WT was > 10 µM each time.
Regarding `CC1(C)C[C@@H]1C(=O)N1CC2(CN(C(=O)c3cncs3)C[C@H]2COCc2ccnn2C2CCCC2)C1` [Compound I-37, ((S)-8-(((1-cyclopentyl-1H-pyrazol-5-yl)methoxy)methyl)-2-((S)-2,2-dimethylcyclopropanecarbonyl)-2,6-diazaspiro[3.4]octan-6-yl)(thiazol-5-yl)methanone], the IC50 at CDK2/Cyclin E1 [1] and with Kuramochi cells RB-WT was > 10 µM each time.
`CC1(C)C[C@@H]1C(=O)N1CC2(CN(C(=O)c3cncs3)C[C@H]2COCc2ccc(Cl)c(Cl)c2)C1` [Compound I-40, ((S)-8-(((3,4-dichlorobenzyl)oxy)methyl)-2-((S)-2,2-dimethylcyclopropanecarbonyl)-2,6-diazaspiro[3.4]octan-6-yl)(thiazol-5-yl)methanone]: the IC50 on CDK2/Cyclin E1 [1] was 1 to 10 µM; in the assay on Kuramochi cells RB-WT, > 10 µM.
The matching figures for `CC1(C)C[C@@H]1C(=O)N1CC2(CN(C(=O)c3cncs3)C[C@H]2COCc2ccc(C(F)(F)F)cc2)C1` [Compound I-41, ((S)-2-((S)-2,2-dimethylcyclopropane-1-carbonyl)-8-(((4-(trifluoromethyl)benzyl)oxy)methyl)-2,6-diazaspiro[3.4]octan-6-yl)(thiazol-5-yl)methanone]: 1 to 10 µM and > 10 µM.
For `CC1(C)C[C@@H]1C(=O)N1CC2(CN(C(=O)c3cncs3)C[C@H]2COCc2cncc(C3CCOCC3)c2)C1` [Compound I-42, ((S)-2-((S)-2,2-dimethylcyclopropane-1-carbonyl)-8-(((5-(tetrahydro-2H-pyran-4-yl)pyridin-3-yl)methoxy)methyl)-2,6-diazaspiro[3.4]octan-6-yl)(thiazol-5-yl)methanone] the same measures were 1 to 10 µM and > 10 µM.
Take `CC1(C)C[C@@H]1C(=O)N1CC2(CN(C(=O)c3cncs3)C[C@H]2COCc2cc(C3CCOCC3)ccn2)C1` [Compound I-43, ((S)-2-((S)-2,2-dimethylcyclopropane-1-carbonyl)-8-(((4-(tetrahydro-2H-pyran-4-yl)pyridin-2-yl)methoxy)methyl)-2,6-diazaspiro[3.4]octan-6-yl)(thiazol-5-yl)methanone]: the IC50 is 1 to 10 µM on CDK2/Cyclin E1 [1] and > 10 µM in the assay with Kuramochi cells RB-WT.
The matching figures for `CC1(C)C[C@@H]1C(=O)N1CC2(CN(C(=O)c3cncs3)C[C@H]2COCc2cccc(C(F)(F)F)c2)C1` [Compound I-44, ((S)-2-((S)-2,2-dimethylcyclopropanecarbonyl)-8-(((3-(trifluoromethyl)benzyl)oxy)methyl)-2,6-diazaspiro[3.4]octan-6-yl)(thiazol-5-yl)methanone]: 1 to 10 µM and > 10 µM.
For `CC1(C)C[C@@H]1C(=O)N1CC2(CN(C(=O)c3cncs3)C[C@H]2COCc2ccnc(C3CCOCC3)c2)C1` [Compound I-45, ((S)-2-((S)-2,2-dimethylcyclopropane-1-carbonyl)-8-(((2-(tetrahydro-2H-pyran-4-yl)pyridin-4-yl)methoxy)methyl)-2,6-diazaspiro[3.4]octan-6-yl)(thiazol-5-yl)methanone] the same measures were > 10 µM and > 10 µM.
Take `CC1(C)C[C@@H]1C(=O)N1CC2(C1)CN(c1cccc3ncsc13)CC2COCc1cccc(C2CCOCC2)n1` (stereo partly drawn) [Compound I-46]: the IC50 on CDK2/Cyclin E1 [1] and in the assay with Kuramochi cells RB-WT was > 10 µM throughout.
On to `CC1(C)C[C@@H]1C(=O)N1CC2(C1)CN(c1ncnc3ncsc13)CC2COCc1cccc(C2CCOCC2)n1` (stereo partly drawn) [Compound I-47, ((S)-2,2-dimethylcyclopropyl)(8-(((6-(tetrahydro-2H-pyran-4-yl)pyridin-2-yl)methoxy)methyl)-6-(thiazolo[4,5-d]pyrimidin-7-yl)-2,6-diazaspiro[3.4]octan-2-yl)methanone], for which the IC50 at CDK2/Cyclin E1 [1] and with Kuramochi cells RB-WT was > 10 µM in each case.
Take `CC1(C)C[C@@H]1C(=O)N1CC2(CN(C(=O)c3cncs3)CC2COCc2cccc(C3=CCOCC3)n2)C1` (stereo partly drawn) [Compound I-48]: the IC50 at CDK2/Cyclin E1 [1] was 1 to 10 µM; in the assay on Kuramochi cells RB-WT it was > 10 µM.
The matching figures for `CC1(C)C[C@@H]1C(=O)N1CC2(CN(C(=O)c3cncs3)C[C@@H]2COCc2cccc(C3CCOCC3)n2)C1` [Compound I-64, ((R)-2-((S)-2,2-dimethylcyclopropane-1-carbonyl)-8-(((6-(tetrahydro-2H-pyran-4-yl)pyridin-2-yl)methoxy)methyl)-2,6-diazaspiro[3.4]octan-6-yl)(thiazol-5-yl) methanone]: 1 to 10 µM and > 10 µM.
